Tests used:
human mAChR M1 [1] = target: T1, human mAChR M1 (Homo sapiens, UniProt P11229); test: mAChR M1 cell-based functional assay (calcium mobilization), PAM activity: increase in the EC20 acetylcholine response; settings: CHO-K1 cells expressing hM1; potentiation of EC20 acetylcholine response
T1 construct: host or cells: CHO-K1 cells (ATCC), stably transfected using Lipofectamine2000
T1 sequence (P11229 1-460): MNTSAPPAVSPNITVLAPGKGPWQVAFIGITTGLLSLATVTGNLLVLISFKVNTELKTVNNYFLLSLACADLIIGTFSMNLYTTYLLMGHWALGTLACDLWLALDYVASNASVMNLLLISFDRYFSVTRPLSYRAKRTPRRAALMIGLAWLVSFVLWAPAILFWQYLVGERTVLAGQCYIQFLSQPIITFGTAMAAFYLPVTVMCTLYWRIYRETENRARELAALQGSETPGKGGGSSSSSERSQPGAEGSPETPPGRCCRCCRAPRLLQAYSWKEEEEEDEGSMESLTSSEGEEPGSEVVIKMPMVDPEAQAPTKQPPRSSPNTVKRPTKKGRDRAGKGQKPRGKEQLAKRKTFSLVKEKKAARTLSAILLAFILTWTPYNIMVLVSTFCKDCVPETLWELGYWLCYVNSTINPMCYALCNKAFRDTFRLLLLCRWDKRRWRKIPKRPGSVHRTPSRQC
In short: (§1)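 CHO-K1 cells stably expressing hM1, loaded with Fluo-4 AM; calcium flux read on FDSS 6000. Compound (11-point, 1:3 CRC) added at 4 s, EC20 acetylcholine at 144 s, EC80 at 230 s; agonism from response to compound alone, PAM from increase in EC20 response; Emax relative to acetylcholine maximum, four-parameter fit.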

human mAChR M1 [2] = target: T1, human mAChR M1; test: mAChR M1 cell-based functional assay (calcium mobilization), agonist activity upon compound addition; settings: CHO-K1 cells expressing hM1; for EC50: compound alone, before acetylcholine addition; for Emax: relative to the maximum for acetylcholine
In short: as §1

Which EC50 (human mAChR M1 [1]) does the source give for Cc1cncc(-c2cc(F)c(Cn3cc(C(=O)N[C@H]4CCC[C@@H]4O)c4ncccc4c3=O)c(F)c2)c1 [Compound A44, 6-(2,6-difluoro-4-(5-methylpyridin-3-yl)benzyl)-N-((1S,2S)-2-hydroxycyclopentyl)-5-oxo-5,6-dihydro-1,6-naphthyridine-8-carboxamide] here?
Its EC50 is at least 10 µM.

What about the Emax (human mAChR M1 [1]) of the same molecule?
Its Emax is 26%.

And the EC50 (human mAChR M1 [2])?
The EC50 was over 10 µM.

What about the Emax (human mAChR M1 [2]) of the same molecule?
The Emax was under 5%.

For O=C(N[C@H]1CCCC[C@@H]1O)c1cn(Cc2ccc(-n3cccn3)cc2)c(=O)c2cccnc12 [Compound A13, 6-(4-(1H-pyrazol-1-yl)benzyl)-N-((1S,2S)-2-hydroxycyclohexyl)-5-oxo-5,6-dihydro-1,6-naphthyridine-8-carboxamide], which EC50 (human mAChR M1 [1]) is on record?
The EC50 was 1.13 µM.

What about the Emax (human mAChR M1 [1]) of the same molecule?
The Emax was 71%.

And the EC50 (human mAChR M1 [2])?
The EC50 was 8.95 µM.

What about the Emax (human mAChR M1 [2]) of the same molecule?
The Emax was 21%.

Which EC50 (human mAChR M1 [1]) does the source give for Cc1cnn(C)c1-c1ccc(Cn2cc(C(=O)N[C@H]3CCCC[C@@H]3O)c3nccn3c2=O)c(F)c1 [Compound B35, 6-(4-(1,4-dimethyl-1H-pyrazol-5-yl)-2-fluorobenzyl)-N-((1S,2S)-2-hydroxycyclohexyl)-5-oxo-5,6-dihydroimidazo[1,2-c]pyrimidine-8-carboxamide] here?
The EC50 was 7.02 µM.

And the Emax (human mAChR M1 [1])?
The Emax was 44%.

What about the EC50 (human mAChR M1 [2]) of the same molecule?
Its EC50 is over 10 µM.

And the Emax (human mAChR M1 [2])?
The Emax was under 5%.

Cn1cc2c(-c3cc(F)c(Cn4cc(C(=O)N[C@H]5CCC[C@@H]5O)c5sccc5c4=O)c(F)c3)cccc2n1 [Compound D32, 5-(2,6-difluoro-4-(2-methyl-2H-indazol-4-yl)benzyl)-N-((1S,2S)-2-hydroxycyclopentyl)-4-oxo-4,5-dihydrothieno[3,2-c]pyridine-7-carboxamide] was tested. Which EC50 (human mAChR M1 [1]) did it give?
The EC50 was 7.73 µM.

What about the Emax (human mAChR M1 [1]) of the same molecule?
The Emax was 40%.

What about the EC50 (human mAChR M1 [2]) of the same molecule?
The EC50 was over 10 µM.

What about the Emax (human mAChR M1 [2]) of the same molecule?
The Emax was under 5%.

What does the source list for Cn1cc2c(-c3cc(F)c(Cn4cc(C(=O)N[C@H]5CCCC[C@@H]5O)c5sccc5c4=O)c(F)c3)cccc2n1 [Compound D31, 5-(2,6-difluoro-4-(2-methyl-2H-indazol-4-yl)benzyl)-N-((1S,2S)-2-hydroxycyclohexyl)-4-oxo-4,5-dihydrothieno[3,2-c]pyridine-7-carboxamide]?
EC50 (human mAChR M1 [1]): 7.98 µM; Emax (human mAChR M1 [1]): 54%; EC50 (human mAChR M1 [2]): > 10 µM; Emax (human mAChR M1 [2]): < 5%

CC[C@H](C)[C@@H](CO)NC(=O)c1cn(Cc2c(F)cc(-c3cccc4nn(C)cc34)cc2F)c(=O)c2nccnc12 [Compound A76, 6-(2,6-difluoro-4-(2-methyl-2H-indazol-4-yl)benzyl)-N-((2S,3S)-1-hydroxy-3-methylpentan-2-yl)-5-oxo-5,6-dihydropyrido[3,4-b]pyrazine-8-carboxamide] was tested. Which EC50 (human mAChR M1 [1]) did it give?
The EC50 was 4.33 µM.

And the Emax (human mAChR M1 [1])?
The Emax was 53%.

What about the EC50 (human mAChR M1 [2]) of the same molecule?
The EC50 was over 10 µM.

What about the Emax (human mAChR M1 [2]) of the same molecule?
Its Emax is under 5%.

How did the EC50 (human mAChR M1 [1]) turn out when Cn1ccc(-c2ccc(Cn3cc(C(=O)N[C@H]4CCC[C@@H]4O)c4ncn(C)c4c3=O)c(F)c2)n1 [Compound C2, 5-(2-fluoro-4-(1-methyl-1H-pyrazol-3-yl)benzyl)-N-((1S,2S)-2-hydroxycyclopentyl)-3-methyl-4-oxo-4,5-dihydro-3H-imidazo[4,5-c]pyridine-7-carboxamide] was run?
Its EC50 is 0.6 µM.

What about the Emax (human mAChR M1 [1]) of the same molecule?
Its Emax is 45%.

What about the EC50 (human mAChR M1 [2]) of the same molecule?
The EC50 was over 10 µM.

And the Emax (human mAChR M1 [2])?
The Emax was under 5%.

With Cn1cc2c(-c3cc(F)c(Cn4cc(C(=O)N[C@H]5CCCC[C@@H]5O)c5ncccc5c4=O)c(F)c3)cccc2n1 [Compound A22, 6-(2,6-difluoro-4-(2-methyl-2H-indazol-4-yl)benzyl)-N-((1S,2S)-2-hydroxycyclohexyl)-5-oxo-5,6-dihydro-1,6-naphthyridine-8-carboxamide] as the molecule, how does the EC50 (human mAChR M1 [1]) read?
Its EC50 is 0.052 µM.

What about the Emax (human mAChR M1 [1]) of the same molecule?
The Emax was 67%.

And the EC50 (human mAChR M1 [2])?
Its EC50 is over 10 µM.

What about the Emax (human mAChR M1 [2]) of the same molecule?
The Emax was under 5%.

Which results are given for Cc1cn2c(=O)n(Cc3ccc(-n4cccn4)cc3)cc(C(=O)N[C@H]3CCOC[C@@H]3O)c2n1 [Compound B27, 6-(4-(1H-pyrazol-1-yl)benzyl)-N-((3R,4S)-3-hydroxytetrahydro-2H-pyran-4-yl)-2-methyl-5-oxo-5,6-dihydroimidazo[1,2-c]pyrimidine-8-carboxamide]?
EC50 (human mAChR M1 [1]): ≥ 10 µM; Emax (human mAChR M1 [1]): 30%; EC50 (human mAChR M1 [2]): > 10 µM; Emax (human mAChR M1 [2]): < 5%

How did the EC50 (human mAChR M1 [1]) turn out when O=C(N[C@H]1CCOC[C@@H]1O)c1cn(Cc2ccc(-n3cccn3)cc2)c(=O)c2nccnc12 [Compound A56, 6-(4-(1H-pyrazol-1-yl)benzyl)-N-((3R,4S)-3-hydroxytetrahydro-2H-pyran-4-yl)-5-oxo-5,6-dihydropyrido[3,4-b]pyrazine-8-carboxamide] was run?
Its EC50 is at least 10 µM.

And the Emax (human mAChR M1 [1])?
Its Emax is 61%.

What about the EC50 (human mAChR M1 [2]) of the same molecule?
Its EC50 is over 10 µM.

And the Emax (human mAChR M1 [2])?
The Emax was under 5%.

Cn1cc(-c2ccc(Cn3cc(C(=O)N[C@H]4CCOC[C@@H]4O)c4nccn4c3=O)cn2)cn1 [Compound B10, N-((3R,4S)-3-hydroxytetrahydro-2H-pyran-4-yl)-6-((6-(1-methyl-1H-pyrazol-4-yl)pyridin-3-yl)methyl)-5-oxo-5,6-dihydroimidazo[1,2-c]pyrimidine-8-carboxamide] was tested. Which EC50 (human mAChR M1 [1]) did it give?
The EC50 was 0.48 µM.

And the Emax (human mAChR M1 [1])?
The Emax was 60%.

And the Emax (human mAChR M1 [2])?
The Emax was 41%.

What does the source list for O=C(N[C@H]1CCOC[C@@H]1O)c1cn(Cc2ccc(-c3cscn3)cc2)c(=O)c2cccnc12 [Compound A57, N-((3R,4S)-3-hydroxytetrahydro-2H-pyran-4-yl)-5-oxo-6-(4-(thiazol-4-yl)benzyl)-5,6-dihydro-1,6-naphthyridine-8-carboxamide]?
EC50 (human mAChR M1 [1]): 1.15 µM; Emax (human mAChR M1 [1]): 68%; EC50 (human mAChR M1 [2]): > 10 µM; Emax (human mAChR M1 [2]): 25%

Cn1nccc1-c1cc(F)c(Cn2cc(C(=O)N[C@H]3CCOC[C@@H]3O)c3ncccc3c2=O)c(F)c1 [Compound A47, 6-(2,6-difluoro-4-(1-methyl-1H-pyrazol-5-yl)benzyl)-N-((3R,4S)-3-hydroxytetrahydro-2H-pyran-4-yl)-5-oxo-5,6-dihydro-1,6-naphthyridine-8-carboxamide] was tested. Which EC50 (human mAChR M1 [1]) did it give?
Its EC50 is 1.09 µM.

What about the Emax (human mAChR M1 [1]) of the same molecule?
The Emax was 57%.

What about the EC50 (human mAChR M1 [2]) of the same molecule?
The EC50 was over 10 µM.

And the Emax (human mAChR M1 [2])?
The Emax was under 5%.

How did the EC50 (human mAChR M1 [1]) turn out when Cn1ccc(-c2ccc(Cn3cc(C(=O)N[C@@H]4CC[C@H]4O)c4nccn4c3=O)c(F)c2)n1 [Compound B4, 6-(2-fluoro-4-(1-methyl-1H-pyrazol-3-yl)benzyl)-N-((1R,2R)-2-hydroxycyclobutyl)-5-oxo-5,6-dihydroimidazo[1,2-c]pyrimidine-8-carboxamide] was run?
The EC50 was 3.22 µM.

What about the Emax (human mAChR M1 [1]) of the same molecule?
The Emax was 52%.

And the EC50 (human mAChR M1 [2])?
Its EC50 is over 10 µM.

What about the Emax (human mAChR M1 [2]) of the same molecule?
Its Emax is under 5%.

Which EC50 (human mAChR M1 [1]) does the source give for Cn1cc2c(-c3cc(F)c(Cn4cc(C(=O)N[C@H]5CCOC[C@@H]5O)c5ncncc5c4=O)c(F)c3)cccc2n1 [Compound A84, 6-(2,6-difluoro-4-(2-methyl-2H-indazol-4-yl)benzyl)-N-((3R,4S)-3-hydroxytetrahydro-2H-pyran-4-yl)-5-oxo-5,6-dihydropyrido[4,3-d]pyrimidine-8-carboxamide] here?
The EC50 was at least 10 µM.

What about the Emax (human mAChR M1 [1]) of the same molecule?
The Emax was 40%.

And the EC50 (human mAChR M1 [2])?
Its EC50 is over 10 µM.

What about the Emax (human mAChR M1 [2]) of the same molecule?
The Emax was under 5%.

Which EC50 (human mAChR M1 [1]) does the source give for Cn1ccc(-c2ccc(Cn3cc(C(=O)NC4CC5(COC5)C4)c4ncccc4c3=O)c(F)c2)n1 [Compound A5, 6-(2-Fluoro-4-(1-methyl-1H-pyrazol-3-yl)benzyl)-5-oxo-N-(2-oxaspiro[3.3]heptan-6-yl)-5,6-dihydro-1,6-naphthyridine-8-carboxamide] here?
Its EC50 is 2.74 µM.

And the Emax (human mAChR M1 [1])?
Its Emax is 44%.

What about the EC50 (human mAChR M1 [2]) of the same molecule?
Its EC50 is over 10 µM.

And the Emax (human mAChR M1 [2])?
The Emax was under 5%.

What does the source list for Cn1cc(-c2ccc(Cn3cc(C(=O)N[C@H]4CCCC[C@@H]4O)c4ncccc4c3=O)cn2)cn1 [Compound A16, N-((1S,2S)-2-hydroxycyclohexyl)-6-((6-(1-methyl-1H-pyrazol-4-yl)pyridin-3-yl)methyl)-5-oxo-5,6-dihydro-1,6-naphthyridine-8-carboxamide]?
EC50 (human mAChR M1 [1]): 0.98 µM; Emax (human mAChR M1 [1]): 68%; Emax (human mAChR M1 [2]): 27%

Which results are given for Cc1cc(-c2ccc(Cn3cc(C(=O)N[C@H]4CCCC[C@@H]4O)c4ncccc4c3=O)c(F)c2)ccn1 [Compound A27, 6-(2-Fluoro-4-(2-methylpyridin-4-yl)benzyl)-N-((1S,2S)-2-hydroxycyclohexyl)-5-oxo-5,6-dihydro-1,6-naphthyridine-8-carboxamide]?
EC50 (human mAChR M1 [1]): 0.86 µM; Emax (human mAChR M1 [1]): 74%; EC50 (human mAChR M1 [2]): > 10 µM; Emax (human mAChR M1 [2]): 6%

Which results are given for Cn1cc(-c2ccc(Cn3cc(C(=O)N[C@H]4CCC[C@@H]4O)c4nccn4c3=O)c(F)c2)cn1 [Compound B7, 6-(2-fluoro-4-(1-methyl-1H-pyrazol-4-yl)benzyl)-N-((1S,2S)-2-hydroxycyclopentyl)-5-oxo-5,6-dihydroimidazo[1,2-c]pyrimidine-8-carboxamide]?
EC50 (human mAChR M1 [1]): 0.24 µM; Emax (human mAChR M1 [1]): 73%; Emax (human mAChR M1 [2]): 48%

Which results are given for Cc1cc(-c2ccc(Cn3cc(C(=O)N[C@H]4CCC[C@@H]4O)c4ncccc4c3=O)c(F)c2)ccn1 [Compound A28, 6-(2-fluoro-4-(2-methylpyridin-4-yl)benzyl)-N-((1S,2S)-2-hydroxycyclopentyl)-5-oxo-5,6-dihydro-1,6-naphthyridine-8-carboxamide]?
EC50 (human mAChR M1 [1]): 1.14 µM; Emax (human mAChR M1 [1]): 54%; EC50 (human mAChR M1 [2]): > 10 µM; Emax (human mAChR M1 [2]): < 5%

Which EC50 (human mAChR M1 [1]) does the source give for Cn1ccc(-c2ccc(Cn3cc(C(=O)N[C@H]4CCCC[C@@H]4O)c4ncn(C)c4c3=O)c(F)c2)n1 [Compound C1, 5-(2-Fluoro-4-(1-methyl-1H-pyrazol-3-yl)benzyl)-N-((1S,2S)-2-hydroxycyclohexyl)-3-methyl-4-oxo-4,5-dihydro-3H-imidazo[4,5-c]pyridine-7-carboxamide] here?
The EC50 was 0.25 µM.

And the Emax (human mAChR M1 [1])?
Its Emax is 65%.

What about the Emax (human mAChR M1 [2]) of the same molecule?
The Emax was 8%.
